Key:
Vasopressin V1a receptor = Vasopressin V1a receptor (Homo sapiens, UniProt P37288)
[1] = molecular target: T1, 5-hydroxytryptamine receptor 1A (Homo sapiens, UniProt P08908); format: functional, cell-based
T1 sequence (P08908 whole entry): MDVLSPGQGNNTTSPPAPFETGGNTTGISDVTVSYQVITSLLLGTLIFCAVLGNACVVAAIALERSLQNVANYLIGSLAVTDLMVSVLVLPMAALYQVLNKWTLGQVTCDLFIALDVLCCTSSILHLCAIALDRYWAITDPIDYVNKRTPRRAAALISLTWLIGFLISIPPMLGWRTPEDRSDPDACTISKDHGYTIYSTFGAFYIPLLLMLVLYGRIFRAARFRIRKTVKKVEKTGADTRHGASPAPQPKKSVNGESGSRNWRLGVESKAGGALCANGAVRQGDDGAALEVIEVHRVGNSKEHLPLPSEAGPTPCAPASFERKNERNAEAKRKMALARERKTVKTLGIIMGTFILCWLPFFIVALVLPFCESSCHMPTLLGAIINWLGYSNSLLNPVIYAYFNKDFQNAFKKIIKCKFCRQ

Progesterone receptor [2] = molecular target: T2, Progesterone receptor (Homo sapiens, UniProt P06401); format: functional
T2 sequence (P06401 whole entry): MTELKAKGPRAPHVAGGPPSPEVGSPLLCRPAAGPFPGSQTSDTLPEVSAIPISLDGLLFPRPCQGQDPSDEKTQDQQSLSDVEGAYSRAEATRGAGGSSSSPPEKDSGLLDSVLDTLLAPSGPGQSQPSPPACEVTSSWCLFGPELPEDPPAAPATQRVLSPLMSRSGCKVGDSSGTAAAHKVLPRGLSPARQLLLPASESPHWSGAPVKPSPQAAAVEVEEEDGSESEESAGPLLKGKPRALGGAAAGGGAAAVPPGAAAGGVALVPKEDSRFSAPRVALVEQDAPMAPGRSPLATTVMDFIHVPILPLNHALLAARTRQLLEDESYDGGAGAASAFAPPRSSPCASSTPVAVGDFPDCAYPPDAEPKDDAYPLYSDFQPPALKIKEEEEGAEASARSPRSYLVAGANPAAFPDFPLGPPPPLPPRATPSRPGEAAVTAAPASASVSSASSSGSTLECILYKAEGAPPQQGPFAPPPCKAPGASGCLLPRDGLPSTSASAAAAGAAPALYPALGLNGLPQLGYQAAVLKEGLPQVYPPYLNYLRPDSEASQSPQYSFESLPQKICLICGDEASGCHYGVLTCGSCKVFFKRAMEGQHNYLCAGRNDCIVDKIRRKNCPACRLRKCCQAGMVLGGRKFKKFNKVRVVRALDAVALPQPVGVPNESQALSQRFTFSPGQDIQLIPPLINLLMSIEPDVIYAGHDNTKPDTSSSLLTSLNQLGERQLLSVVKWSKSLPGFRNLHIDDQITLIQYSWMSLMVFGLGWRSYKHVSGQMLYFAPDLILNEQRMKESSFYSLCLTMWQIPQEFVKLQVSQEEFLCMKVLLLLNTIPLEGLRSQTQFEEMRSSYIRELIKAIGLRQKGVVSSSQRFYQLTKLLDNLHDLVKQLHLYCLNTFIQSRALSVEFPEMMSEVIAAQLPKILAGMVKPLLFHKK

Progesterone receptor [3] = molecular target: T2, Progesterone receptor; format: functional; remark: listed apart in the source
[4] = molecular target: Voltage-dependent L-type calcium channel subunit alpha-1C (Rattus norvegicus, UniProt P22002); format: functional
[5] = molecular target: Glutamate receptor ionotropic, NMDA 1 (Rattus norvegicus, UniProt P35439)
Histamine H2 receptor = Histamine H2 receptor (Homo sapiens, UniProt P25021); format: functional, cell-based
[6] = molecular target: Gamma-aminobutyric acid receptor subunit alpha-1 (Rattus norvegicus, UniProt P62813)
[7] = molecular target: Prostaglandin G/H synthase 1 (Homo sapiens, UniProt P23219); format: functional
[8] = molecular target: 5-hydroxytryptamine receptor 2B (Homo sapiens, UniProt P41595); format: functional, cell-based
Progesterone receptor [9] = molecular target: T2, Progesterone receptor
Acetylcholinesterase = Acetylcholinesterase (Homo sapiens, UniProt P22303); format: functional
[10] = molecular target: T3, Alpha-2A adrenergic receptor (Homo sapiens, UniProt P08913)
T3 sequence (P08913 whole entry): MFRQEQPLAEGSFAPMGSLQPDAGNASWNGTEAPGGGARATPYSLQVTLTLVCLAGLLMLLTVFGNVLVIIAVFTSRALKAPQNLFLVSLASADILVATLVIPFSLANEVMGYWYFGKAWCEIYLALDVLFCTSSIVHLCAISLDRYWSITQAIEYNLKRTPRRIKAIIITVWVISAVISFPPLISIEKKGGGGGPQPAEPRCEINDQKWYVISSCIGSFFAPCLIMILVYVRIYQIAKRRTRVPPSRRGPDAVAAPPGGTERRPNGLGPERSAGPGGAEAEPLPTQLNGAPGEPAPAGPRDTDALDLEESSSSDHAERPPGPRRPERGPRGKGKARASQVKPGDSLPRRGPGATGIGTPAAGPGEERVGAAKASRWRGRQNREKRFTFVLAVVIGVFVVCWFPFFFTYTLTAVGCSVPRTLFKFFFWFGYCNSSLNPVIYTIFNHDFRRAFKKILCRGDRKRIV

Thromboxane A2 receptor = molecular target: T4, Thromboxane A2 receptor (Homo sapiens, UniProt P21731); format: functional, cell-based
T4 sequence (P21731 whole entry): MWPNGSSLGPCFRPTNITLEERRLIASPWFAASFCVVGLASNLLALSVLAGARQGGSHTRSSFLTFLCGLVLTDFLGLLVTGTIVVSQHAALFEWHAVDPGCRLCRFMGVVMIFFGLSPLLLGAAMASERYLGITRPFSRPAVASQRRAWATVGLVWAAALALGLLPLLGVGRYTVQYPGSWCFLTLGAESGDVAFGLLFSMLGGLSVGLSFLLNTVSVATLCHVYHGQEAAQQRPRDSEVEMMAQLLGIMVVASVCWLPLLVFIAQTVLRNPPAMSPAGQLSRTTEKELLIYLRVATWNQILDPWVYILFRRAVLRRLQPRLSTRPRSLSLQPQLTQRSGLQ

Histamine H3 receptor = Histamine H3 receptor (Homo sapiens, UniProt Q9Y5N1)
Prothrombin = Prothrombin (Homo sapiens, UniProt P00734); format: functional
Note: assay procedure not described here.

Chain of Voltage-dependent L-type calcium channel subunit alpha-1C (P22002 whole entry): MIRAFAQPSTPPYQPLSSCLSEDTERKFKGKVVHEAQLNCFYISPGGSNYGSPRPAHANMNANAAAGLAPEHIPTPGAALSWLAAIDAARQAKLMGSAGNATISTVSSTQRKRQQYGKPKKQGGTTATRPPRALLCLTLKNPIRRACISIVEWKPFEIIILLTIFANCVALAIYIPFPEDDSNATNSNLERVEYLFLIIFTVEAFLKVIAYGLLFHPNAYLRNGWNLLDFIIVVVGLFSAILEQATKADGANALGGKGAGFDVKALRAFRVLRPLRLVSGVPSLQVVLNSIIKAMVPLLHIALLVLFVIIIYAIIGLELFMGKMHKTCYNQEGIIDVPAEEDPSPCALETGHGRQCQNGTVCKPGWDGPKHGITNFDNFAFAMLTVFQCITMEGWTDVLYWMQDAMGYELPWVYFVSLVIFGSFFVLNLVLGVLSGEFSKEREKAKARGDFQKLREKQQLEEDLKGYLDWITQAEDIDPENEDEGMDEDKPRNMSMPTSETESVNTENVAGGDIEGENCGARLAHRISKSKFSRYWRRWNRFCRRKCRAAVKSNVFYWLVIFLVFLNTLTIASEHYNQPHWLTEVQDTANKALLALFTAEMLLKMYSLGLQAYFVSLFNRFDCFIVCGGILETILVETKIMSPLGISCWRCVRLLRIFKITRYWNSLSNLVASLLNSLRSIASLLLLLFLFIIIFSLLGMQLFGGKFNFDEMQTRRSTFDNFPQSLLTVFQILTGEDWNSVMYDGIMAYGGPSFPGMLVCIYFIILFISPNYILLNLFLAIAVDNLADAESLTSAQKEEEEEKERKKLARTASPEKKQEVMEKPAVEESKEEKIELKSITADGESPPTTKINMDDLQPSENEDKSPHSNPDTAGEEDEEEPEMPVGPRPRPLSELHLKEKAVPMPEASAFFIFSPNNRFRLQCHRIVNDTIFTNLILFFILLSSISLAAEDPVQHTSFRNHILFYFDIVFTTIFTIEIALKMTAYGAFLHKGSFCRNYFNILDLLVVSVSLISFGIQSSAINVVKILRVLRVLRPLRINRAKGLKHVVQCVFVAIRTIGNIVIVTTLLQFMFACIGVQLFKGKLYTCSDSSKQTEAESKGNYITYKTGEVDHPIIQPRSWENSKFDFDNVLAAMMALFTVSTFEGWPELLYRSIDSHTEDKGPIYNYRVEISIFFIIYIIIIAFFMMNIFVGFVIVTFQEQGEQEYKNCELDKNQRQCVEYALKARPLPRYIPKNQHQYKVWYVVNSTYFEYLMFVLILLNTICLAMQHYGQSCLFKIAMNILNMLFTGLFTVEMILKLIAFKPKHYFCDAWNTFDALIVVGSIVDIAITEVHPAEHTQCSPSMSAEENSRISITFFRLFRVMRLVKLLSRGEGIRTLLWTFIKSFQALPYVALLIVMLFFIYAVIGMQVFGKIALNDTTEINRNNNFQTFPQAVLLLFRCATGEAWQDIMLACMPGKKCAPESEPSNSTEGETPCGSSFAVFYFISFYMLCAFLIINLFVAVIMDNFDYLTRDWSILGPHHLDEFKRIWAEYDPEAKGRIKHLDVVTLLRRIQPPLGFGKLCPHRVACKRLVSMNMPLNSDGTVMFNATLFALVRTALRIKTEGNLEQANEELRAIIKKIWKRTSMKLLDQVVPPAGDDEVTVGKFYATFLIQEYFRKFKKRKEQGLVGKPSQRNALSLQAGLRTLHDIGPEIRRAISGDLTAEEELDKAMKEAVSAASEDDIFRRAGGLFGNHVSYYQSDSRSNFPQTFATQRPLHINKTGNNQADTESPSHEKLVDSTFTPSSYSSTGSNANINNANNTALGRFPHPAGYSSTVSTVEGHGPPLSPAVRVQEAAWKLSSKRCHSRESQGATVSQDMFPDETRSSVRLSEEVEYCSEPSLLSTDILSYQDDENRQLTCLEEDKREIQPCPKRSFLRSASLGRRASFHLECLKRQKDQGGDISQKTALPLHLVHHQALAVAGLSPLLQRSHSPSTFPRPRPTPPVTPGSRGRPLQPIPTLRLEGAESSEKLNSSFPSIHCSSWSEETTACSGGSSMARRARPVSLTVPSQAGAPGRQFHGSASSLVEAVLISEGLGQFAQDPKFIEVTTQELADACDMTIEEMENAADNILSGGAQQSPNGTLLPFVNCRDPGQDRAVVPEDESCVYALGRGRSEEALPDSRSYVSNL
Chain of Gamma-aminobutyric acid receptor subunit alpha-1 (P62813 whole entry): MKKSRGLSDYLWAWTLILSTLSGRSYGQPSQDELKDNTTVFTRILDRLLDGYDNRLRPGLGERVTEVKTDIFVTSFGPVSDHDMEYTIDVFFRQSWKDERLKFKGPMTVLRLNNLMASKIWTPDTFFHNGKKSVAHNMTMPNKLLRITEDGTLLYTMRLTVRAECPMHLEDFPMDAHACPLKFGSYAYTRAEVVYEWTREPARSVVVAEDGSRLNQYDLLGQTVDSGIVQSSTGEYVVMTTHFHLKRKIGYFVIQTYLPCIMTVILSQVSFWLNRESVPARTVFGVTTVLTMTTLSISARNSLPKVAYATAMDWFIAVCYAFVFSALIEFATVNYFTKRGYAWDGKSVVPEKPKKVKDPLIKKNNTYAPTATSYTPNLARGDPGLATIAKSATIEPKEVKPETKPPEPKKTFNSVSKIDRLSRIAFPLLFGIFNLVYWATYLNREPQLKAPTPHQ
Chain of Histamine H2 receptor (P25021 whole entry): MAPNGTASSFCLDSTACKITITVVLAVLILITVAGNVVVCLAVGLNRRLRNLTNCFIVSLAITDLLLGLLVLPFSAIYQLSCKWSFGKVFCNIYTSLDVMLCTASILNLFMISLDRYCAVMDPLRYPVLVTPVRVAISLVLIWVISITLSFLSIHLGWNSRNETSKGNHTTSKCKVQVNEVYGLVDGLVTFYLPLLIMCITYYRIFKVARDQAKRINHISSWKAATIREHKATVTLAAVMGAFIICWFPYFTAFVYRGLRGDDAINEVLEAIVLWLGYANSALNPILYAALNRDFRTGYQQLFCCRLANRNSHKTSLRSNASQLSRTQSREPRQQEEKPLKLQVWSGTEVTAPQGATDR
Chain of Vasopressin V1a receptor (P37288 whole entry): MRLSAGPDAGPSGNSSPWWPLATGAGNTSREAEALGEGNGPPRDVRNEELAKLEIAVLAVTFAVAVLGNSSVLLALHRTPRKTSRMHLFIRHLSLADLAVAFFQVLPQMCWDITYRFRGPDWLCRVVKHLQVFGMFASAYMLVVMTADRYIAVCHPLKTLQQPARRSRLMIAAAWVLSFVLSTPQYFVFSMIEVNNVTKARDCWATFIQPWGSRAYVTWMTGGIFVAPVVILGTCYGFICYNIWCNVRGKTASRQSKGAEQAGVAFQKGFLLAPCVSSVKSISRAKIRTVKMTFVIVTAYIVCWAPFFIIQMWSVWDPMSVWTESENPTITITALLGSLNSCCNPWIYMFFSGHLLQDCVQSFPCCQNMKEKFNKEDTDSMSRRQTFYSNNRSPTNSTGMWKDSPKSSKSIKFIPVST
Chain of Prostaglandin G/H synthase 1 (P23219 whole entry): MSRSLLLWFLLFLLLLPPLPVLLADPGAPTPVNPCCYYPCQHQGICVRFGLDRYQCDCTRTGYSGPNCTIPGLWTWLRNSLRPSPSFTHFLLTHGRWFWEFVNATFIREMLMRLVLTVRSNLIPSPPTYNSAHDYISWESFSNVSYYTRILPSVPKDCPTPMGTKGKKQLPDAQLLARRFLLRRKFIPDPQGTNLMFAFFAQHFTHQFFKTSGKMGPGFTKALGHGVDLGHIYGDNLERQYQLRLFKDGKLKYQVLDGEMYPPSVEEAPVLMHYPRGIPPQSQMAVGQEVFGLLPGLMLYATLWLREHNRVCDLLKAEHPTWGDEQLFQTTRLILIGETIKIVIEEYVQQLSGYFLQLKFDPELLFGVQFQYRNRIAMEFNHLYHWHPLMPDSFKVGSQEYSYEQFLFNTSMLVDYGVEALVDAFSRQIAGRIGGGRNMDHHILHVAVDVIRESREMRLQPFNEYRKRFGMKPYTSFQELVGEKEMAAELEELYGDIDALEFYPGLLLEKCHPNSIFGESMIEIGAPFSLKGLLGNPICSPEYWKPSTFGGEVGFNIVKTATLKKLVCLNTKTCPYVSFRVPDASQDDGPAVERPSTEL
Chain of Acetylcholinesterase (P22303 whole entry): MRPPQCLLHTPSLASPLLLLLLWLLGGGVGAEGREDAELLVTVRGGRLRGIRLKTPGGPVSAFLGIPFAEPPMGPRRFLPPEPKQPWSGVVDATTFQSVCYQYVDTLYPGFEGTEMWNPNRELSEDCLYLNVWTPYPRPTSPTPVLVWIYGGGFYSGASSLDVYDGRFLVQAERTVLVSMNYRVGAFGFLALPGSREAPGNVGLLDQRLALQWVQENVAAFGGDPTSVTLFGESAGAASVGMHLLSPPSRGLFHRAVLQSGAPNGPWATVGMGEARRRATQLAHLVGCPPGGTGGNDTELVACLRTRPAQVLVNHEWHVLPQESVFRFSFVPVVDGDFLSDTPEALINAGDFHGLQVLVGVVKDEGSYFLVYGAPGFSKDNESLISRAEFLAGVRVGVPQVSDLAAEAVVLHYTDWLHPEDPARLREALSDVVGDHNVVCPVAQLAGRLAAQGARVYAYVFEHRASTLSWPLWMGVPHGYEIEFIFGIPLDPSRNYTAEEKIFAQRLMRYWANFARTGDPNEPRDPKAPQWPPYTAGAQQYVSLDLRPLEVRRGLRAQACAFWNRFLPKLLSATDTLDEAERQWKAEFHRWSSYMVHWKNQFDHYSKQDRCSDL
Chain of Histamine H3 receptor (Q9Y5N1 whole entry): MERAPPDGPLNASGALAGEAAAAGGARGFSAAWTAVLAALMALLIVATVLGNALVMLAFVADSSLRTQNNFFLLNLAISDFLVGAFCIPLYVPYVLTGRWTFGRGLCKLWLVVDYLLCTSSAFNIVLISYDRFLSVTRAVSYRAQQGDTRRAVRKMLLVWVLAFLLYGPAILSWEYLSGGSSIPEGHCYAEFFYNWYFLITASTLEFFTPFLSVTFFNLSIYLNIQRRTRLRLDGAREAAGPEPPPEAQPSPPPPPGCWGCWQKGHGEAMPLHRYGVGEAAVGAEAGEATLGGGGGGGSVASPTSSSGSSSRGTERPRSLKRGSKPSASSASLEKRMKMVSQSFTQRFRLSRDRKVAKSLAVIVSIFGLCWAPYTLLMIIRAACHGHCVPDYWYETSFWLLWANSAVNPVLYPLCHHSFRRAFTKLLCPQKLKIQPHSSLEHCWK

Compound | AC50 (Vasopressin V1a receptor) | AC50 [1] | AC50 (Progesterone receptor [2]) | AC50 (Progesterone receptor [3]) | AC50 [4] | AC50 [5] | AC50 (Histamine H2 receptor) | AC50 [6] | AC50 [7] | AC50 [8] | AC50 (Progesterone receptor [9]) | AC50 (Acetylcholinesterase) | AC50 [10] | AC50 (Thromboxane A2 receptor) | AC50 (Histamine H3 receptor) | AC50 (Prothrombin)
CC(C)(CO)c1cc2cc(NC(=O)C3(c4ccc5c(c4)OC(F)(F)O5)CC3)c(F)cc2n1C[C@@H](O)CO [TEZACAFTOR] | > 30 µM | > 10 µM | > 30 µM | > 30 µM |  |  |  |  |  |  |  |  |  |  |  | 
CCN(CC)CCn1c(=O)c(Cc2ccc(OC)cc2)nc2ccccc21 [CAROVERINE] | > 30 µM | > 30 µM | > 30 µM | > 30 µM | > 30 µM | > 30 µM | > 30 µM | > 30 µM |  |  |  |  |  |  |  | 
NCCCCCC(=O)O [AMINOCAPROIC ACID] |  | > 10 µM | > 10 µM | > 10 µM | > 10 µM | > 10 µM | > 10 µM | > 10 µM |  |  |  |  |  |  |  | 
CCN(CCO)CCCC(C)Nc1ccnc2cc(Cl)ccc12 (stereo not drawn) [HYDROXYCHLOROQUINE] |  | > 10 µM | > 10 µM | > 10 µM | > 10 µM | > 10 µM | > 10 µM | > 10 µM |  |  |  |  |  |  |  | 
CN1CC2c3ccccc3Oc3ccc(Cl)cc3C2C1 (stereo not drawn) [ASENAPINE] | > 30 µM | 0.0097 µM | > 30 µM | > 30 µM |  |  |  |  |  |  |  |  |  |  |  | 
COc1cc2c(cc1OC)C1CC(=O)C(CC(C)C)CN1CC2 (stereo not drawn) [TETRABENAZINE] | > 30 µM | > 30 µM | > 30 µM | > 30 µM |  |  |  |  |  |  |  |  |  |  |  | 
CCOC(=O)[C@H](CCc1ccccc1)N[C@@H](C)C(=O)N1Cc2ccccc2C[C@H]1C(=O)O | > 10 µM | > 10 µM |  |  | > 10 µM | > 10 µM | > 10 µM | > 10 µM | > 30 µM | > 30 µM | > 30 µM | > 30 µM | > 30 µM | > 30 µM | > 30 µM | > 30 µM
O=C(O)[C@H]1/C(=C/CO)O[C@@H]2CC(=O)N21 [CLAVULANIC ACID] | > 30 µM | > 30 µM | > 30 µM | > 30 µM |  |  |  |  |  |  |  |  |  |  |  | 
N[C@@H](Cc1cc(I)c(Oc2cc(I)c(O)c(I)c2)c(I)c1)C(=O)O [LEVOTHYROXINE] | > 30 µM | > 30 µM | 8.7 µM | > 30 µM |  | > 30 µM | > 30 µM |  |  |  |  |  |  |  |  | 
CN(C)CCOC(c1ccc(Cl)cc1)c1ccccn1 (stereo not drawn) [CARBINOXAMINE] | > 30 µM | > 30 µM | > 30 µM | > 30 µM |  | > 30 µM | > 30 µM |  |  |  |  |  |  |  |  | 
CC(C)NCC(O)COc1ccc(CC(N)=O)cc1 (stereo not drawn) [ATENOLOL] | > 30 µM |  | > 30 µM | > 30 µM |  | > 30 µM | > 30 µM |  |  |  |  |  |  |  |  | 
c1cnc2cc3c(cc2n1)[C@@H]1CNC[C@H]3C1 [VARENICLINE] | > 30 µM | > 30 µM | > 30 µM | > 30 µM |  |  |  |  |  |  |  |  |  |  |  | 
